These results are taken from ChEMBL document CHEMBL1201862, “PubChem BioAssay data set” (2004).

Experiment [1] is described as follows: blockers of CRF-binding protein–CRF-R2 complex – cell-based, uHTS hits, 384-well, dose response (AID 651639). Type of experiment: functional, Homo sapiens. Particulars: read-out: IC50_Mean.
The target of experiment [2] is T1, Corticotropin-releasing factor receptor 2/Corticotropin-releasing factor-binding protein (Homo sapiens, UniProt P24387+Q13324).
T1 sequence (Q13324 whole entry): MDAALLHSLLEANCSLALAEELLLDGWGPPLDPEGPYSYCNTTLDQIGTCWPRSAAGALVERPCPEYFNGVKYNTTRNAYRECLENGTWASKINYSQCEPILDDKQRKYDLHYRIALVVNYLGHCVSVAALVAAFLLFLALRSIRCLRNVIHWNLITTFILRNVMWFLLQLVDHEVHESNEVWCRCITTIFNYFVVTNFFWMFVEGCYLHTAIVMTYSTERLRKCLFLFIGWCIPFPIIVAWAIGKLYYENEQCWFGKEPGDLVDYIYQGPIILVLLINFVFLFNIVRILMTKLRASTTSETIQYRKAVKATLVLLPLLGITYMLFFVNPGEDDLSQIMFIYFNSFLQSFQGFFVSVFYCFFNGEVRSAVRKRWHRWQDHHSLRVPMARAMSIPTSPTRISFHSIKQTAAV
T1 sequence (P24387 whole entry): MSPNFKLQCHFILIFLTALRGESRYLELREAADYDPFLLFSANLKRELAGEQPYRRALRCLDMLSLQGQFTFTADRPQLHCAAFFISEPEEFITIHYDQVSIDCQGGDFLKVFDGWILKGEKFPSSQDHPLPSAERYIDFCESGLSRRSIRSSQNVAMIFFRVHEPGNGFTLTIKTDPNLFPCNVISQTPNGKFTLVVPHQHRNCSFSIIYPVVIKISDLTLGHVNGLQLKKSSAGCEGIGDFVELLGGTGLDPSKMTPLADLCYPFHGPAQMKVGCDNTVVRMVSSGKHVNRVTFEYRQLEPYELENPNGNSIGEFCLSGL
In words: Dose Response confirmation of uHTS hits for small molecule antagonists of the CRF-binding protein and CRF-R2 receptor complex. As to conditions: read-out: IC50_Mean. Type of experiment: functional.

For experiment [3], the target named is T1, Corticotropin-releasing factor receptor 2/Corticotropin-releasing factor-binding protein. In words: activators of CRF receptor 2 with binding protein – uHTS hits, confirmation (AID 602473). Particulars: read-out: EC50_Mean. It counts as functional.
A further experiment deals with Genome polyprotein (dengue virus type 2, UniProt P29990). Nature of the experiment: flavivirus cap methylation enzyme inhibition – biochemical, confirmation dose response, primary screen (AID 588689). It counts as functional.
Genome polyprotein, sequence (P29990 2492-3391 limits assumed): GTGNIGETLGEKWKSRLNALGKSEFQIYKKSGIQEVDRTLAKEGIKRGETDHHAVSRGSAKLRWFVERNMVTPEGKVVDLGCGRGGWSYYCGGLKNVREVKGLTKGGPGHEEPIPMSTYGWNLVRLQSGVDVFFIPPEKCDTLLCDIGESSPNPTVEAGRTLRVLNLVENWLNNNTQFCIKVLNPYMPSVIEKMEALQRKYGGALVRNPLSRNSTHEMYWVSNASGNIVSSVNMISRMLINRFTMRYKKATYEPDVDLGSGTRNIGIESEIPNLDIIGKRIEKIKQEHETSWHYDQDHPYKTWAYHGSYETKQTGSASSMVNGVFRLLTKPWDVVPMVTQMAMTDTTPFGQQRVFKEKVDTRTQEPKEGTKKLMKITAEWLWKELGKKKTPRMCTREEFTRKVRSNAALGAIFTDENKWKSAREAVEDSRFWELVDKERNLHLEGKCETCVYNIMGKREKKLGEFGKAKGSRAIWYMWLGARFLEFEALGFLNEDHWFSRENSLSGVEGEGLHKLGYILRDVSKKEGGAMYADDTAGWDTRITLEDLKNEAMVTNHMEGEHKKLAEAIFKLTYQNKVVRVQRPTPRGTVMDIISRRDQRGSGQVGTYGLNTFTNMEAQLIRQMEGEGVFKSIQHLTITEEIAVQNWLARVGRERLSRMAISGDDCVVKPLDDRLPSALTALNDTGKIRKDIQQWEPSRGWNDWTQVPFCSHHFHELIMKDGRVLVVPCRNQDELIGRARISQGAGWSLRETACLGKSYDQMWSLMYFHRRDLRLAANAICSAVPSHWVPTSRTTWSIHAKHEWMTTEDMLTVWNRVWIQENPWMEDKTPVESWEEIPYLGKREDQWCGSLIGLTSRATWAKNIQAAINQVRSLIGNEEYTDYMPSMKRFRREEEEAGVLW
The next experiment addresses T2, Aminopeptidase N (Plasmodium falciparum FcB1/Columbia, UniProt O96935).
T2 sequence (O96935 whole entry): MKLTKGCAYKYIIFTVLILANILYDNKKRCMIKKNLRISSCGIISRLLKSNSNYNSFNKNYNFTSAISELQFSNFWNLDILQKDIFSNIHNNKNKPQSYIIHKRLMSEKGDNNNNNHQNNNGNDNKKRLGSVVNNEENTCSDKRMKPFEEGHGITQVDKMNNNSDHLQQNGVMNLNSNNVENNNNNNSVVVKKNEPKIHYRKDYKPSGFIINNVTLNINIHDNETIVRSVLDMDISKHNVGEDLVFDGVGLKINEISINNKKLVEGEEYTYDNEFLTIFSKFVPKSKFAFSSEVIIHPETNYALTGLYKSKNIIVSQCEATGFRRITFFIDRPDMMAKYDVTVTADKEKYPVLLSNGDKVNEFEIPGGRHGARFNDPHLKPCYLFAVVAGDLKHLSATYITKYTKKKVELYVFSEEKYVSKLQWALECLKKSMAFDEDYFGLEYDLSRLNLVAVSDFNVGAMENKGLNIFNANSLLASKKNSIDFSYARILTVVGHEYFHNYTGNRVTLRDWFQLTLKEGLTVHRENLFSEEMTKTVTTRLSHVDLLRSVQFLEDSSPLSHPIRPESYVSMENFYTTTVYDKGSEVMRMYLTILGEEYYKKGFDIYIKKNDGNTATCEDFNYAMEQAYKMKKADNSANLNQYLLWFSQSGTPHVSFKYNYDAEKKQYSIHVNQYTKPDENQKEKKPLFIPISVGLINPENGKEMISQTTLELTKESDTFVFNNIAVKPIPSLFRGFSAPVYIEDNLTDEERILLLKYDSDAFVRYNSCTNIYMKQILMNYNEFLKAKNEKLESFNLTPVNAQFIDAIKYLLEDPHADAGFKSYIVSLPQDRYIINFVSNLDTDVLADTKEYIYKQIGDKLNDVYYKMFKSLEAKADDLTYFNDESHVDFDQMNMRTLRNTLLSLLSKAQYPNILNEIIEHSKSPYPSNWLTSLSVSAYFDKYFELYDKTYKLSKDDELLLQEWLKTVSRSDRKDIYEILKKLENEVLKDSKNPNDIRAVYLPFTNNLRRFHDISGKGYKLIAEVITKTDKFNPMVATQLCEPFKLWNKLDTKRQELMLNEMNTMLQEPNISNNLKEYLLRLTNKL
Nature of the experiment: malaria alanyl aminopeptidase activity blockers – biochemical, fluorogenic H-Leu-NHMec substrate, 1536-well (AID 1445). The arrangement: species or system Plasmodium falciparum 3D7, 3D7.

Experiment [4] has as its target Photoreceptor-specific nuclear receptor (Homo sapiens, UniProt Q9Y5X4). It counts as functional, cell-based.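 Note: CHO-S cells with Gal4-NCOR and VP16-NR2E3 two-hybrid luciferase reporter.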
For the next experiment, the system named is INS1. Nature of the experiment: INS-1E survival protection against cytokine death – cell-based, luminescence, retest, dose response (AID 449756).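 Note: cell death triggered by IL-1 beta plus TNF-alpha plus IFN-gamma mixture; protective hits raise ATP signal compared with cytokine alone wells.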 Type of experiment: functional. As to conditions: Rattus norvegicus.
Experiment [5] can be described thus: activation of miR-122 Renilla sensor silencing – cell-based, Huh7 psiCHECK-miR122, Renilla luciferase, cherry-picked, dose response (AID 651956).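 Note: huh7 hepatoma cells stably carrying a psiCHECK-2 miR-122 sensor plasmid; renilla luciferase signal reporting endogenous miR-122 activity after 48 h compound exposure.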 Type of experiment: functional.

Each structure is given as a SMILES string. Activity calls are given as the source filed them.

Photoreceptor-specific nuclear receptor, sequence (Q9Y5X4 whole entry, the tested form may be a part): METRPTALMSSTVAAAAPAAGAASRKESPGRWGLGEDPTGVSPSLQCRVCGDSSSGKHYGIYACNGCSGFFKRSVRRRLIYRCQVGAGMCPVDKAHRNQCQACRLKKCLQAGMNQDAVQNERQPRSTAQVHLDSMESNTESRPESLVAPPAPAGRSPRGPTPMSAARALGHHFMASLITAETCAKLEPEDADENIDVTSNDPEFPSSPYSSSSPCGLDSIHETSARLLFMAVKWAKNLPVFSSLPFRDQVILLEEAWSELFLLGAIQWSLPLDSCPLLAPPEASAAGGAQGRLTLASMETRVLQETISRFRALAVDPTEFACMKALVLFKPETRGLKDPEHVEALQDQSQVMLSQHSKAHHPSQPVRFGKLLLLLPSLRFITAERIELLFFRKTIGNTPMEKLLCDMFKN

`CCOc1ccc(/C=C2\SC(=S)N(NS(=O)(=O)c3ccc(C)cc3)C2=O)cc1OC`: the IC50 in experiment [1] was > 20 µM (inactive); in experiment [2], 6.18 µM (active); on Genome polyprotein, 58.3 µM (active); on Aminopeptidase N, 34.2 µM (active). In addition, the EC50 in experiment [3] is > 53 µM (inactive).
Regarding `CC(Oc1ccc(Br)cc1)c1nc2c3ccccc3nc(S)n2n1` (stereo not given), in experiment [4], the IC50 is 3.74 µM (active). The AC50 in the experiment with INS1 was 7.23 µM (active).
`COc1ccc(N2CCN(C(=O)CSc3nnc(CNc4ccccc4)o3)CC2)cc1`: the AC50 in experiment [5] was 44.3 µM (active).
For the compound `O=C(C1CCC(CNS(=O)(=O)c2cccc3nsnc23)CC1)N1CC=C(c2ccccc2)CC1` (stereo not given), the IC50 in experiment [4] was 3.8 µM (active).
As to `Cc1nn(C)cc1NC(=O)C[C@@H]1CC[C@@H]2[C@@H](COc3ccc(NC(=O)Nc4cccc(Cl)c4)cc3C(=O)N2C)O1`, the AC50 in experiment [5] is 22.8 µM (active).

As a reminder, the AC50 is the concentration at which the activity in the assay is half-maximal.
